The subject of this data set is CCRIS mutagenicity, Ames/micronucleus/aberration tests. Put plainly: CCRIS mutagenicity studies.
Where [1] appears, read: Test System: AMES SALMONELLA TYPHIMURIUM, Strain/Indicator: TA97, Metabolic Activation: NONE, Method: PREINCUBATION
[2] abbreviates: Test System: AMES SALMONELLA TYPHIMURIUM, Strain/Indicator: TA98, Metabolic Activation: HAMSTER, LIVER, S-9, AROCLOR 1254 (10%), Method: PREINCUBATION
Where [3] appears, read: Test System: AMES SALMONELLA TYPHIMURIUM, Strain/Indicator: TA98, Metabolic Activation: NONE, Method: PREINCUBATION
Setting [4] is: Test System: AMES SALMONELLA TYPHIMURIUM, Strain/Indicator: TA98, Metabolic Activation: RAT, LIVER, S-9, AROCLOR 1254 (10%), Method: PREINCUBATION
Where [5] appears, read: Test System: AMES SALMONELLA TYPHIMURIUM, Strain/Indicator: TA100, Metabolic Activation: HAMSTER, LIVER, S-9, AROCLOR 1254 (10%), Method: PREINCUBATION
Setting [6] is: Test System: AMES SALMONELLA TYPHIMURIUM, Strain/Indicator: TA100, Metabolic Activation: NONE, Method: PREINCUBATION
[7] abbreviates: Test System: AMES SALMONELLA TYPHIMURIUM, Strain/Indicator: TA100, Metabolic Activation: RAT, LIVER, S-9, AROCLOR 1254 (10%), Method: PREINCUBATION
Setting [8] is: Test System: AMES SALMONELLA TYPHIMURIUM, Strain/Indicator: TA1535, Metabolic Activation: HAMSTER, LIVER, S-9, AROCLOR 1254 (10%), Method: PREINCUBATION
Setting [9] is: Test System: AMES SALMONELLA TYPHIMURIUM, Strain/Indicator: TA1535, Metabolic Activation: NONE, Method: PREINCUBATION
Where [10] appears, read: Test System: AMES SALMONELLA TYPHIMURIUM, Strain/Indicator: TA1535, Metabolic Activation: RAT, LIVER, S-9, AROCLOR 1254 (10%), Method: PREINCUBATION
[11] abbreviates: Test System: AMES SALMONELLA TYPHIMURIUM, Strain/Indicator: TA1537, Metabolic Activation: NONE, Method: PREINCUBATION

The source made the active and inactive calls. No rule for the calls is given here.

`O=C(OCC1CO1)c1cccc(C(=O)OCC2CO2)c1` (centres undefined): the mutagenic call by setting is: (Test System: AMES SALMONELLA TYPHIMURIUM, Strain/Indicator: TA97, Metabolic Activation: HAMSTER, LIVER, S-9, AROCLOR 1254 (10%), Method: PREINCUBATION) “inactive; negative”; under setting [1], “active; positive”; (Test System: AMES SALMONELLA TYPHIMURIUM, Strain/Indicator: TA97, Metabolic Activation: RAT, LIVER, S-9, AROCLOR 1254 (10%), Method: PREINCUBATION) “inactive; negative”; under setting [2], “inactive; negative”; under setting [3], “inactive; negative”; under setting [4], “inactive; negative”. Also, the mutagenic call by setting is: under setting [5], “active; positive”; under setting [6], “active; positive”; under setting [7], “active; positive”; under setting [8], “active; positive”; under setting [9], “active; positive”; under setting [10], “active; positive”.

Turning to `O=C1NC(=O)[C@H]2[C@H]3C=C[C@@H]([C@@H]12)[C@@H]1[C@H]2C(=O)NC(=O)[C@H]2[C@H]31`, the mutagenic call (Test System: MOUSE LYMPHOMA, Strain/Indicator: L5178Y (TK+/TK-), Metabolic Activation: NONE, Method: SUSPENSION/PLATE) is “active; positive. reevaluation of results: inconclusive” and the mutagenic call (Test System: MOUSE LYMPHOMA, Strain/Indicator: L5178Y (TK+/TK-), Metabolic Activation: RAT, LIVER, S-9, AROCLOR 1254, Method: SUSPENSION/PLATE) is “active; positive. reevaluation of results: positive”.

In the case of `Nc1ccc(/C=C/c2ccc(N)c(S(=O)(=O)O)c2)c(S(=O)(=O)O)c1`, the mutagenic call is “inactive; negative” under setting [2]; “inactive; negative” under setting [3]; “inactive; negative” under setting [4]; “inactive; negative” under setting [5]; “inactive; negative” under setting [6]; “inactive; negative” under setting [7]. The mutagenic call is, setting by setting: under setting [8], “inactive; negative”; under setting [9], “inactive; negative”; under setting [10], “inactive; negative”; (Test System: AMES SALMONELLA TYPHIMURIUM, Strain/Indicator: TA1537, Metabolic Activation: HAMSTER, LIVER, S-9, AROCLOR 1254 (10%), Method: PREINCUBATION) “inactive; negative”; under setting [11], “inactive; negative”; (Test System: AMES SALMONELLA TYPHIMURIUM, Strain/Indicator: TA1537, Metabolic Activation: RAT, LIVER, S-9, AROCLOR 1254 (10%), Method: PREINCUBATION) “inactive; negative”.

Turning to `Fc1ccc(F)c2c1ccc1ncccc12`, the mutagenic call (Test System: AMES SALMONELLA TYPHIMURIUM, Strain/Indicator: TA100, Metabolic Activation: RAT, LIVER, S-9, PHENOBARBITAL AND 5,6-BENZOFLAVONE, Method: PREINCUBATION) was “active; positive”.

With `CCCCCCCCC`, the mutagenic call by setting is: (Test System: AMES SALMONELLA TYPHIMURIUM, Strain/Indicator: TA97, Metabolic Activation: HAMSTER, LIVER, S-9, AROCLOR 1254 (10 OR 30%), Method: PREINCUBATION) “inactive; negative”; under setting [1], “inactive; negative”; (Test System: AMES SALMONELLA TYPHIMURIUM, Strain/Indicator: TA97, Metabolic Activation: RAT, LIVER, S-9, AROCLOR 1254 (10 OR 30%), Method: PREINCUBATION) “inactive; negative”; (Test System: AMES SALMONELLA TYPHIMURIUM, Strain/Indicator: TA98, Metabolic Activation: HAMSTER, LIVER, S-9, AROCLOR 1254 (10 OR 30%), Method: PREINCUBATION) “inactive; negative”; under setting [3], “inactive; negative”; (Test System: AMES SALMONELLA TYPHIMURIUM, Strain/Indicator: TA98, Metabolic Activation: RAT, LIVER, S-9, AROCLOR 1254 (10 OR 30%), Method: PREINCUBATION) “inactive; negative”. Further, the mutagenic call by setting is: (Test System: AMES SALMONELLA TYPHIMURIUM, Strain/Indicator: TA100, Metabolic Activation: HAMSTER, LIVER, S-9, AROCLOR 1254 (10 OR 30%), Method: PREINCUBATION) “inactive; negative”; under setting [6], “inactive; negative”; (Test System: AMES SALMONELLA TYPHIMURIUM, Strain/Indicator: TA100, Metabolic Activation: RAT, LIVER, S-9, AROCLOR 1254 (10 OR 30%), Method: PREINCUBATION) “inactive; negative”; (Test System: AMES SALMONELLA TYPHIMURIUM, Strain/Indicator: TA1535, Metabolic Activation: HAMSTER, LIVER, S-9, AROCLOR 1254 (10 OR 30%), Method: PREINCUBATION) “inactive; negative”; under setting [9], “inactive; negative”; (Test System: AMES SALMONELLA TYPHIMURIUM, Strain/Indicator: TA1535, Metabolic Activation: RAT, LIVER, S-9, AROCLOR 1254 (10 OR 30%), Method: PREINCUBATION) “inactive; negative”. Moreover, the mutagenic call was “inactive; negative” (Test System: AMES SALMONELLA TYPHIMURIUM, Strain/Indicator: TA1537, Metabolic Activation: HAMSTER, LIVER, S-9, AROCLOR 1254 (30%), Method: PREINCUBATION); “inactive; negative” under setting [11]; “inactive; negative” (Test System: AMES SALMONELLA TYPHIMURIUM, Strain/Indicator: TA1537, Metabolic Activation: RAT, LIVER, S-9, AROCLOR 1254 (30%), Method: PREINCUBATION).

For the compound `Nc1nc2c(s1)CC[C@@H]1NCCC[C@@H]21`, the mutagenic call (Test System: AMES SALMONELLA TYPHIMURIUM, Strain/Indicator: TA1538, Metabolic Activation: RAT, LIVER, S-9, AROCLOR 1254, Method: STANDARD PLATE) was “inactive; negative”.

`Nc1nc(N)nc(Cl)n1`: the mutagenic call reads like this: (Test System: AMES SALMONELLA TYPHIMURIUM, Strain/Indicator: TA97, Metabolic Activation: NONE, Method: STANDARD PLATE) “inactive; negative”; (Test System: AMES SALMONELLA TYPHIMURIUM, Strain/Indicator: TA98, Metabolic Activation: NONE, Method: STANDARD PLATE) “inactive; negative”; (Test System: AMES SALMONELLA TYPHIMURIUM, Strain/Indicator: TA100, Metabolic Activation: NONE, Method: STANDARD PLATE) “inactive; negative”.

`CC(=O)C1=CC[C@H]2C3=CCC4=C[C@@H](O)[C@H](O)C[C@]4(C)C3C[C@@H](O)[C@]12C` (some centres undefined): the mutagenic call reads like this: (Test System: AMES SALMONELLA TYPHIMURIUM, Strain/Indicator: TM677, Metabolic Activation: NONE, Method: STANDARD PLATE) “inactive; negative”; (Test System: AMES SALMONELLA TYPHIMURIUM, Strain/Indicator: TM677, Metabolic Activation: RAT, LIVER, S-9, AROCLOR 1254, Method: STANDARD PLATE) “inactive; negative”; (Test System: CHINESE HAMSTER OVARY, Strain/Indicator: CHO/6-THIOGUANINE, Metabolic Activation: NONE, Method: STANDARD PLATE) “inactive; negative”.

The values are drawn from PubChem BioAssay AID1259407 (Chemical Carcinogenesis Research Information System (CCRIS), 2018).
